Experiments:
Test in all cases: relative viability (nuclei count vs DMSO), 5 days (fraction); higher = more cells survive
Carfilzomib + Trametinib = compound: CC(C)C[C@H](NC(=O)[C@H](CCc1ccccc1)NC(=O)CN1CCOCC1)C(=O)N[C@@H](Cc1ccccc1)C(=O)N[C@@H](CC(C)C)C(=O)[C@@]1(C)CO1 [Carfilzomib] + CC(=O)Nc1cccc(-n2c(=O)n(C3CC3)c(=O)c3c(Nc4ccc(I)cc4F)n(C)c(=O)c(C)c32)c1 [Trametinib] (partner 0.02 µM)
Method in brief: (§1)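 Lung cancer cell lines, seeded in 1536-well plates, were treated the following day by pin tool with a single drug or with five library-drug doses (not always all listed) in √10 steps on top of a fixed anchor-drug dose. Cells were fixed and nuclei stained in one step after 5 days, and nuclei were counted. Relative viability is the nuclei count for treated wells divided by that for vehicle wells, reported as medians of duplicate plates.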

Crizotinib + Phenformin = compound: C[C@@H](Oc1cc(-c2cnn(C3CCNCC3)c2)cnc1N)c1c(Cl)ccc(F)c1Cl [Crizotinib] + N=C(N)NC(=N)NCCc1ccccc1 [Phenformin] (partner 250 µM)
Method in brief: as §1

Olaparib + AZD7762 = compound: O=C(c1cc(Cc2n[nH]c(=O)c3ccccc23)ccc1F)N1CCN(C(=O)C2CC2)CC1 [Olaparib] + NC(=O)Nc1cc(-c2cccc(F)c2)sc1C(=O)N[C@H]1CCCNC1 [AZD7762] (partner 0.2 µM)
Method in brief: as §1

Olaparib + Luminespib = compound: O=C(c1cc(Cc2n[nH]c(=O)c3ccccc23)ccc1F)N1CCN(C(=O)C2CC2)CC1 [Olaparib] + CCNC(=O)c1noc(-c2cc(C(C)C)c(O)cc2O)c1-c1ccc(CN2CCOCC2)cc1 [Luminespib] (partner 0.01 µM)
Method in brief: as §1

NCI-H3122
relative viability (Carfilzomib + Trametinib; first compound 0.001 µM): 0.196 | relative viability (Carfilzomib + Trametinib; first compound 0.003162 µM): 0.234 | relative viability (Carfilzomib + Trametinib; first compound 0.01 µM): 0.255 | relative viability (Carfilzomib + Trametinib; first compound 0.03162 µM): 0.244 | relative viability (Carfilzomib + Trametinib; first compound 0.1 µM): 0.239 | relative viability (Crizotinib + Phenformin; first compound 0.01 µM): 0.374 | relative viability (Crizotinib + Phenformin; first compound 0.03162 µM): 0.38 | relative viability (Crizotinib + Phenformin; first compound 0.1 µM): 0.4 | relative viability (Crizotinib + Phenformin; first compound 0.3162 µM): 0.333 | relative viability (Crizotinib + Phenformin; first compound 1 µM): 0.236 | relative viability (Olaparib + AZD7762; first compound 0.08 µM): 1.03 | relative viability (Olaparib + AZD7762; first compound 0.253 µM): 0.945 | relative viability (Olaparib + AZD7762; first compound 2.53 µM): 0.908 | relative viability (Olaparib + AZD7762; first compound 8 µM): 0.559 | relative viability (Olaparib + Luminespib; first compound 0.08 µM): 0.0823 | relative viability (Olaparib + Luminespib; first compound 0.253 µM): 0.107 | relative viability (Olaparib + Luminespib; first compound 2.53 µM): 0.101 | relative viability (Olaparib + Luminespib; first compound 8 µM): 0.0643

PC-3 [JPC-3]
relative viability (Carfilzomib + Trametinib; first compound 0.001 µM): 0.77 | relative viability (Carfilzomib + Trametinib; first compound 0.003162 µM): 0.679 | relative viability (Carfilzomib + Trametinib; first compound 0.01 µM): 0.706 | relative viability (Carfilzomib + Trametinib; first compound 0.03162 µM): 0.552 | relative viability (Carfilzomib + Trametinib; first compound 0.1 µM): 0.279 | relative viability (Crizotinib + Phenformin; first compound 0.01 µM): 0.469 | relative viability (Crizotinib + Phenformin; first compound 0.03162 µM): 0.506 | relative viability (Crizotinib + Phenformin; first compound 0.1 µM): 0.482 | relative viability (Crizotinib + Phenformin; first compound 0.3162 µM): 0.452 | relative viability (Crizotinib + Phenformin; first compound 1 µM): 0.482 | relative viability (Olaparib + AZD7762; first compound 0.08 µM): 0.887 | relative viability (Olaparib + AZD7762; first compound 2.53 µM): 0.866 | relative viability (Olaparib + AZD7762; first compound 8 µM): 0.926 | relative viability (Olaparib + Luminespib; first compound 0.08 µM): 0.832 | relative viability (Olaparib + Luminespib; first compound 0.253 µM): 0.749 | relative viability (Olaparib + Luminespib; first compound 2.53 µM): 0.587 | relative viability (Olaparib + Luminespib; first compound 8 µM): 0.592

PC-14
relative viability (Carfilzomib + Trametinib; first compound 0.001 µM): 0.749 | relative viability (Carfilzomib + Trametinib; first compound 0.003162 µM): 0.672 | relative viability (Carfilzomib + Trametinib; first compound 0.01 µM): 0.588 | relative viability (Carfilzomib + Trametinib; first compound 0.03162 µM): 0.0506 | relative viability (Carfilzomib + Trametinib; first compound 0.1 µM): 0.0646 | relative viability (Crizotinib + Phenformin; first compound 0.01 µM): 0.562 | relative viability (Crizotinib + Phenformin; first compound 0.03162 µM): 0.675 | relative viability (Crizotinib + Phenformin; first compound 0.1 µM): 0.642 | relative viability (Crizotinib + Phenformin; first compound 0.3162 µM): 0.526 | relative viability (Crizotinib + Phenformin; first compound 1 µM): 0.522 | relative viability (Olaparib + AZD7762; first compound 0.08 µM): 0.4 | relative viability (Olaparib + AZD7762; first compound 0.253 µM): 0.334 | relative viability (Olaparib + AZD7762; first compound 2.53 µM): 0.355 | relative viability (Olaparib + AZD7762; first compound 8 µM): 0.205 | relative viability (Olaparib + Luminespib; first compound 0.08 µM): 0.199 | relative viability (Olaparib + Luminespib; first compound 2.53 µM): 0.134 | relative viability (Olaparib + Luminespib; first compound 8 µM): 0.156

RERF-LC-KJ
relative viability (Carfilzomib + Trametinib; first compound 0.001 µM): 0.864 | relative viability (Carfilzomib + Trametinib; first compound 0.003162 µM): 0.908 | relative viability (Carfilzomib + Trametinib; first compound 0.01 µM): 0.941 | relative viability (Carfilzomib + Trametinib; first compound 0.03162 µM): 0.511 | relative viability (Carfilzomib + Trametinib; first compound 0.1 µM): 0.211 | relative viability (Crizotinib + Phenformin; first compound 0.03162 µM): 0.421 | relative viability (Crizotinib + Phenformin; first compound 0.1 µM): 0.409 | relative viability (Crizotinib + Phenformin; first compound 0.3162 µM): 0.435 | relative viability (Crizotinib + Phenformin; first compound 1 µM): 0.409 | relative viability (Olaparib + AZD7762; first compound 0.08 µM): 1.11 | relative viability (Olaparib + AZD7762; first compound 0.253 µM): 0.825 | relative viability (Olaparib + AZD7762; first compound 2.53 µM): 0.883 | relative viability (Olaparib + AZD7762; first compound 8 µM): 1.08 | relative viability (Olaparib + Luminespib; first compound 0.08 µM): 1.22 | relative viability (Olaparib + Luminespib; first compound 0.253 µM): 1.08 | relative viability (Olaparib + Luminespib; first compound 2.53 µM): 1.23 | relative viability (Olaparib + Luminespib; first compound 8 µM): 1

SW 900
relative viability (Carfilzomib + Trametinib; first compound 0.003162 µM): 0.804 | relative viability (Carfilzomib + Trametinib; first compound 0.01 µM): 0.163 | relative viability (Carfilzomib + Trametinib; first compound 0.03162 µM): 0.177 | relative viability (Carfilzomib + Trametinib; first compound 0.1 µM): 0.126 | relative viability (Crizotinib + Phenformin; first compound 0.01 µM): 0.556 | relative viability (Crizotinib + Phenformin; first compound 0.03162 µM): 0.651 | relative viability (Crizotinib + Phenformin; first compound 0.1 µM): 0.652 | relative viability (Crizotinib + Phenformin; first compound 0.3162 µM): 0.586 | relative viability (Crizotinib + Phenformin; first compound 1 µM): 0.723 | relative viability (Olaparib + AZD7762; first compound 0.08 µM): 0.652 | relative viability (Olaparib + AZD7762; first compound 0.253 µM): 0.637 | relative viability (Olaparib + AZD7762; first compound 2.53 µM): 0.584 | relative viability (Olaparib + AZD7762; first compound 8 µM): 0.555 | relative viability (Olaparib + Luminespib; first compound 0.08 µM): 0.171 | relative viability (Olaparib + Luminespib; first compound 0.253 µM): 0.17 | relative viability (Olaparib + Luminespib; first compound 2.53 µM): 0.184 | relative viability (Olaparib + Luminespib; first compound 8 µM): 0.197
